Data from patent publication US10343992B2, “1-cyano-pyrrolidine compounds as USP30 inhibitors” (MISSION THERAPEUTICS LIMITED, priority 2015, dated 2019).
pIC50: −log10 of the molar value.

target: USP30 (Homo sapiens (Human), UniProt Q70CQ3); assay: USP30 biochemical FP or FI IC50 assay; conditions: read-out: IC50 range
Method: USP30 Biochemical IC50 Assay
Dilution plates were prepared at 21 times the final concentration (2100 μM for a final concentration of 100 μM) in 50% DMSO in a 96-well polypropylene V-bottom plate (Greiner #651201). A typical 8-point dilution series would be 100, 30, 10, 3, 1, 0.3, 0.1, 0.03 μM final. Reactions were performed in duplicate in black 384 well plates (small volume, Greiner 784076) in a final reaction volume of 21 μl. Either 1 μl of 50% DMSO or diluted compound was added to the plate. USP30 was diluted in reaction buffer (40 mM Tris, pH 7.5, 0.005% Tween 20, 0.5 mg/ml BSA, 5 mM—beta-mercaptoethanol) to the equivalent of 0.05 μl/well and 10 μl of diluted USP30 was added to the compound. Enzyme and compound were incubated for 30 min at room temp. Reactions were initiated by the addition of 50 nM of TAMRA labelled peptide linked to ubiquitin via an iso-peptide bond as fluorescence polarisation substrate. Reactions were read immediately after addition of substrate and following a 2 hr incubation at room temperature. Readings were performed on a Pherastar Plus (BMG Labtech). λ Excitation 540 nm; λ Emission 590 nm.
USP30 Biochemical Fluorescence Intensity IC50 Assay
Dilution plates were prepared at 21 times the final concentration (2100 μM for a final concentration of 100 μM) in 50% DMSO in a 96-well polypropylene V-bottom plate (Greiner #651201). A typical 8-point dilution series would be 100, 30, 10, 3, 1, 0.3, 0.1, 0.03 μM final. Reactions were performed in duplicate in black 384 well plates (small volume, Greiner 784076) in a final reaction volume of 21 μl.
Either 1 μl of 50% DMSO or diluted compound was added to the plate. USP30 was diluted in reaction buffer (40 mM Tris, pH 7.5, 0.005% Tween 20, 0.5 mg/ml BSA, 5 mM—beta-mercaptoethanol) to the equivalent of 0.001 μl/well and 10 μl of diluted USP30 was added to the compound. Enzyme and compound were incubated for 30 min at room temp. Reactions were initiated by the addition of Ubiquitin-Rhodamine 110 (U-555; Boston Biochem) at a final concentration of 100 nM. Reactions were read immediately after addition of substrate and following a 2 h incubation at room temperature. Readings were performed on a Pherastar Plus (BMG Labtech). λ Excitation 487 nm; λ Emission 535 nm.

USP30, sequence (Q70CQ3 57-517): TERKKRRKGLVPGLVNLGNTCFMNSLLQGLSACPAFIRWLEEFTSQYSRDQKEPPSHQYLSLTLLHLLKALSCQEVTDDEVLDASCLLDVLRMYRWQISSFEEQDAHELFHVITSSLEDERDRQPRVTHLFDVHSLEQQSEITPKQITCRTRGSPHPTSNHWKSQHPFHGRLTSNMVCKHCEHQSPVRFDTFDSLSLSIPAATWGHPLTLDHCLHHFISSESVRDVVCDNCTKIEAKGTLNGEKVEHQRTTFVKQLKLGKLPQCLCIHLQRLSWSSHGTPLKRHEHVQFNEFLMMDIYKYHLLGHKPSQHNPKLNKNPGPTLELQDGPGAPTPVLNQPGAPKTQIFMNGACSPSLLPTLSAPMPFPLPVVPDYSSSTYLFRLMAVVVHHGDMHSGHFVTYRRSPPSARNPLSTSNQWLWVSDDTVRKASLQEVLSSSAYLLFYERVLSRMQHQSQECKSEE

Row | SMILES | pIC50
1 | Cn1cc(C2CCN(C(=O)N[C@@H]3CCN(C#N)C3)C2)cn1 (stereo partly drawn) [Example 226, N-((R)-1-cyanopyrrolidin-3-yl)-3-(1-methyl-1H-pyrazol-4-yl)pyrrolidine-1-carboxamide] | 5.00 to 6.00
2 | COc1ccnc(Nc2ccc(C(=O)N[C@@H]3CCN(C#N)C3)c(F)c2)n1 [Example 149, (R)-N-(1-cyanopyrrolidin-3-yl)-2-fluoro-4-((4-methoxypyrimidin-2-yl)amino)benzamide] | > 7.00
3 | C[C@H]1CN(C#N)C[C@@H]1NC(=O)c1ncc(-c2ccccc2)s1 [Example 69, N-((3R,4S)-1-cyano-4-methylpyrrolidin-3-yl)-5-phenylthiazole-2-carboxamide] | 5.00 to 6.00
4 | N#CN1C[C@H]2CCN(C(=O)N3CC(c4ccccc4)C3)[C@H]2C1 [Example 193, (3aR,6aR)-1-(3-phenylazetidine-1-carbonyl)hexahydropyrrolo[3,4-b]pyrrole-5(1H)-carbonitrile] | 6.00 to 7.00
5 | N#Cc1cccc(-c2ccc3nc(C(=O)N[C@@H]4CCN(C#N)C4)cn3c2)c1 [Example 116, (R)-6-(3-cyanophenyl)-N-(1-cyanopyrrolidin-3-yl)imidazo[1,2-a]pyridine-2-carboxamide] | > 7.00
6 | Cc1cc(-c2ccn3c(C(=O)N(C)[C@@H]4CCN(C#N)C4)cnc3c2)ccn1 [Example 161, (R)-N-(1-cyanopyrrolidin-3-yl)-N-methyl-7-(2-methylpyridin-4-yl)imidazo[1,2-a]pyridine-3-carboxamide] | 6.00 to 7.00
7 | N#CN1CCC(NC(=O)c2ccc(N3CCC(Oc4ccccc4)CC3)nc2)C1 (centres unmarked) [Example 22, N-(1-cyanopyrrolidin-3-yl)-6-(4-phenoxypiperidin-1-yl)nicotinamide] | 6.00 to 7.00
8 | N#CN1CC[C@@H](NC(=O)c2ccc3c(c2)OCCN3c2nccc(C3CC3)n2)C1 [Example 212, (R)-N-(1-cyanopyrrolidin-3-yl)-4-(4-cyclopropylpyrimidin-2-yl)-3,4-dihydro-2H-benzo[b][1, 4]oxazine-7-carboxamide] | > 7.00
9 | N#CN1CCCC(NC(=O)c2cccc(-c3ccccc3)c2)C1 (centres unmarked) [Example 248, N-(1-cyanopiperidin-3-yl)-[1,1′-biphenyl]-3-carboxamide] | 5.00 to 6.00
10 | N#CN1CC[C@@H](NC(=O)c2cc(-c3ccc(C(F)(F)F)cc3)no2)C1 [Example 219, (R)-N-(1-cyanopyrrolidin-3-yl)-3-(4-(trifluoromethyl)phenyl)isoxazole-5-carboxamide] | 6.00 to 7.00
11 | N#CN1CCC(NC(=O)c2ccc(N3CCN(c4ccc(F)cc4F)CC3)nc2)C1 (racemic) [Example 19, N-(1-cyanopyrrolidin-3-yl)-6-(4-(2,4-difluorophenyl)piperazin-1-yl)nicotinamide] | 6.00 to 7.00
12 | N#CN1CC[C@@H](NC(=O)N2CC(Oc3ccccc3)C2)C1 [Example 133, (R)-N-(1-cyanopyrrolidin-3-yl)-3-phenoxyazetidine-1-carboxamide] | 6.00 to 7.00
13 | N#CN1CC[C@@H](NC(=O)c2ccc(-c3ccn4nccc4n3)cc2F)C1 [Example 172, (R)-N-(1-cyanopyrrolidin-3-yl)-2-fluoro-4-(pyrazolo[1,5-a]pyrimidin-5-yl)benzamide] | > 7.00
14 | COc1ccc(-c2cc(C(=O)N[C@@H]3CCN(C#N)C3)n[nH]2)cc1 [Example 95, (R)-N-(1-cyanopyrrolidin-3-yl)-5-(4-methoxyphenyl)-1H-pyrazole-3-carboxamide] | > 7.00
15 | Cc1noc(C)c1-c1ccc2c(C(=O)N[C@@H]3CCN(C#N)C3)nn(CC(C)C)c2c1 [Example 154, (R)-N-(1-cyanopyrrolidin-3-yl)-6-(3,5-dimethylisoxazol-4-yl)-1-isobutyl-1H-indazole-3-carboxamide] | > 7.00
16 | Cn1cc(-c2cc(F)c(C(=O)N[C@@H]3CCN(C#N)C3)c(F)c2)cn1 [Example 113, (R)-N-(1-cyanopyrrolidin-3-yl)-2,6-difluoro-4-(1-methyl-1H-pyrazol-4-yl)benzamide] | 6.00 to 7.00
17 | Cn1cc(-c2ccc3[nH]nc(C(=O)N[C@@H]4CCN(C#N)C4)c3c2)cn1 [Example 126, (R)-N-(1-cyanopyrrolidin-3-yl)-5-(1-methyl-1H-pyrazol-4-yl)-1H-indazole-3-carboxamide] | > 7.00
18 | N#CN1CC[C@@H](NC(=O)c2cc(-c3ccccc3F)[nH]n2)C1 [Example 98, (R)-N-(1-cyanopyrrolidin-3-yl)-5-(2-fluorophenyl)-1H-pyrazole-3-carboxamide] | > 7.00
19 | N#CN1CCC(NC(=O)Nc2cccc(Cc3ccccc3)c2)C1 (centres unmarked) [Example 253, 1-(3-benzylphenyl)-3-(1-cyanopyrrolidin-3-yl)urea] | 6.00 to 7.00
20 | N#CN1CCC(NC(=O)c2cccc(N3CCC(Oc4ccccc4)CC3)n2)C1 (racemic) [Example 26, N-(1-cyanopyrrolidin-3-yl)-6-(4-phenoxypiperidin-1-yl)picolinamide] | 5.00 to 6.00
21 | N#CN1CCC(NC(=O)c2ccc(-c3cccc(Cl)c3)cc2)C1 (racemic) [Example 13, 3′-chloro-N-(1-cyanopyrrolidin-3-yl)-[1,1′-biphenyl]-4-carboxamide] | > 7.00
22 | COc1cc(C(=O)N[C@@H]2CCN(C#N)C2)ccc1-c1ccnc(N2CCOCC2)c1 [Example 41, (R)-N-(1-cyanopyrrolidin-3-yl)-3-methoxy-4-(2-morpholinopyridin-4-yl)benzamide] | 6.00 to 7.00
23 | Cn1cc(-c2ccc(C(=O)N[C@@H]3CCN(C#N)C3)cn2)cn1 [Example 111, (R)-N-(1-cyanopyrrolidin-3-yl)-6-(1-methyl-1H-pyrazol-4-yl)nicotinamide] | 6.00 to 7.00

The remaining lines, values ahead:

Row | pIC50 | SMILES
24 | 5.00 to 6.00 | N#CN1CC[C@H](NC(=O)c2ccc(-c3ccncc3)cc2)C1 [Example 47, (S)-N-(1-cyanopyrrolidin-3-yl)-4-(pyridin-4-yl)benzamide]
25 | 6.00 to 7.00 | Cc1ccc(-c2ccn3c(C(=O)N(C)[C@@H]4CCN(C#N)C4)cnc3c2)cn1 [Example 162, (R)-N-(1-cyanopyrrolidin-3-yl)-N-methyl-7-(6-methylpyridin-3-yl)imidazo[1,2-a]pyridine-3-carboxamide]
26 | 6.00 to 7.00 | Cc1cc(-c2cc(C(=O)N[C@@H]3CCN(C#N)C3)on2)ccn1 [Example 270, (R)-N-(1-cyanopyrrolidin-3-yl)-3-(2-methylpyridin-4-yl)isoxazole-5-carboxamide]
27 | 6.00 to 7.00 | CN(C(=O)Nc1ccc(C(F)(F)F)cc1)C1CCN(C#N)C1 (centres unmarked) [Example 261, 1-(1-cyanopyrrolidin-3-yl)-1-methyl-3-(4-(trifluoromethyl)phenyl)urea]
28 | 6.00 to 7.00 | Cn1cc(-c2ccn3c(C(=O)N[C@@H]4CCN(C#N)C4)cnc3c2)cn1 [Example 159, (R)-N-(1-cyanopyrrolidin-3-yl)-7-(1-methyl-1H-pyrazol-4-yl)imidazo[1,2-a]pyridine-3-carboxamide]
29 | 5.00 to 6.00 | COc1cc(C(=O)N2CC[C@@H]3CN(C#N)C[C@@H]32)ccc1-c1cnn(C)c1 (racemic) [Example 60, rac-(3aR,6aR)-1-(3-methoxy-4-(1-methyl-1H-pyrazol-4-yl)benzoyl)hexahydropyrrolo[3,4-b]pyrrole-5(1H)-carbonitrile]
30 | > 7.00 | Cn1ccc2cc(-c3cnc(C(=O)N[C@@H]4CCN(C#N)C4)c(F)c3)cnc21 [Example 121, (R)-N-(1-cyanopyrrolidin-3-yl)-3-fluoro-5-(1-methyl-1H-pyrrolo[2,3-b]pyridin-5-yl)picolinamide]
31 | 6.00 to 7.00 | Cn1cc(-c2cnc(C(=O)N[C@@H]3CCN(C#N)C3)nc2)cn1 [Example 45, (R)-N-(1-cyanopyrrolidin-3-yl)-5-(1-methyl-1H-pyrazol-4-yl)pyrimidine-2-carboxamide]
32 | 6.00 to 7.00 | N#CN1CC[C@@H](NC(=O)N2CC(c3ccn(-c4cnccn4)n3)C2)C1 [Example 235, (R)-N-(1-cyanopyrrolidin-3-yl)-3-(1-(pyrazin-2-yl)-1H-pyrazol-3-yl)azetidine-1-carboxamide]
33 | 6.00 to 7.00 | N#CN1CC[C@@H](NC(=O)c2ncc(-c3ccc4nccn4c3)cc2F)C1 [Example 187, (R)-N-(1-cyanopyrrolidin-3-yl)-3-fluoro-5-(imidazo[1,2-a]pyridin-6-yl)picolinamide]
34 | 6.00 to 7.00 | N#CN1CC[C@@H](NC(=O)c2ccc(-c3cnc4nccn4c3)cc2F)C1 [Example 109, (R)-N-(1-cyanopyrrolidin-3-yl)-2-fluoro-4-(imidazo[1,2-a]pyrimidin-6-yl)benzamide]
35 | > 7.00 | CN(C(=O)Nc1cccc(Oc2ccccc2)c1)C1CCN(C#N)C1 (centres unmarked) [Example 258, 1-(1-cyanopyrrolidin-3-yl)-1-methyl-3-(3-phenoxyphenyl)urea]
